# According to article PMC11017252, “Copper(II) Complexes with 2,2′:6′,2″-Terpyridine Derivatives Displaying Dimeric Dichloro−μ–Bridged Crystal Structure: Biological Activities from 2D and 3D Tumor Spheroids to In Vivo Models” (Journal of Medicinal Chemistry, 2024):
# Tests used:
# [1] = tested on: normal human primary dermal fibroblasts; assay: MTS cell viability assay, normal fibroblasts; type: cell-based; details: 48 h of exposure
# Procedure: (§1) The in vitro cytotoxic potential of Cu(II) complexes in tumor and healthy cells was assessed using the MTS assay, a colorimetric method that allows the quantification of viable cells in culture.[46]
# Cell culture and maintenance
# (§2) The cancer cell lines HCT116 (colorectal carcinoma) and A2780 (ovarian carcinoma) were obtained
# (§3) from the American Type Culture Collection (ATCC®, Manassas, VA, USA), as well as the normal
# human primary dermal fibroblasts.
# (§4) Apart from the A2780 cell line, which was cultured in Roswell Park Memorial Institute (RPMI)
# (§5) medium, all cells were cultured in Dulbecco’s modified Eagle medium (DMEM). Both media were
# (§6) supplemented with 10% (v/v) fetal bovine serum (FBS) and 1% (v/v) of a Pen/Strep
# (§7) (Penicillin/Streptomycin) solution. To maintain the resistant phenotype of the HCT116DoxR cell line,
# (§8) the medium was additionally supplemented with 3.6 μM Dox4. All media and supplements were
# (§9) purchased from Thermo Fischer Scientific (Waltham, MA, USA).
# (§10) Cells were maintained in 25 cm2 T-flasks (T25) in a humidified atmosphere at 37 °C and 5% (v/v) CO
# (§11) (SANYO CO2 Incubator, Electric Biomedical Co., Osaka, Japan).
# (§12) The effect of Cu(II) complexes on cell viability was studied in HCT116, HCT116DoxR, and A2780
# (§13) cancer cell lines and in normal human primary fibroblasts. Cells were seeded in a density of 0.75×105
# (§14) cells/mL into 96-well plates and incubated in a humidified atmosphere at 37 °C and 5% (v/v) CO2 for
# (§15) 24 h. After incubation, complexes were weighed, immediately solubilized in 100% (v/v) DMSO and
# (§16) diluted for the final concentration with cell culture medium. The medium in each well was replaced by
# (§17) a solution of fresh medium containing each Cu(II) complex (concentrations ranging from 0.01 μM to
# (§18) Following a second incubation period of 48 h in the same conditions, the supernatant of each well was
# (§19) replaced by a solution containing MTS reagent (3-(4,5-dimethylthiazol-2-yl)-5-(3-
# (§20) Non-Radioactive Cell Proliferation Assay Kit (Promega, Madison, WI, EUA) for a 30 minutes
# (§21) incubation. The percentage of viable cells was indirectly determined by the spectrophotometric
# (§22) quantification at 490 nm in a microplate reader, Tecan Infinite M200 (Tecan, Männedorf, Switzerland)
# (§23) of formazan production, resultant from the reduction of the MTS reagent by mitochondrial
# [2] = tested on: HCT116DoxR (Dox-resistant colorectal carcinoma cell line); assay: MTS cell viability assay, 2D culture, HCT116DoxR; details: read-out: IC50 (μM) HCT116DoxR, 48 h of exposure
# Procedure: as §1
# In this regard, cell viability was performed for each of the ligands on HCT116DoxR and fibroblasts.
# Cell culture and maintenance
# as §2, §3
# human primary dermal fibroblasts.
# as §4, §5, §6, §7, §8, §9, §10, §11, §12, §13, §14, §15, §16, §17
# (§24) as negative and positive controls, respectively.
# as §18, §19
# (§25) carboxymethoxyphenyl)-2-(4-sulfophenyl)-2H-tetrazolium) provided by the CellTiter 96® AQueous
# as §20, §21, §22, §23
# (§26) dehydrogenases. Since these enzymes are only active in viable cells, the absorbance value measured is
# (§27) directly proportional to the percentage of viable cells in culture5.
# [3] = tested on: pUC18 plasmid DNA; assay: pDNA cleavage in vitro (agarose gel electrophoresis); type: biochemical, E. coli; details: for effect of control reagent alone on pUC18 / effect of NaN3 (singlet oxygen scavenger) on pDNA cleavage by the complex: 24 h; for effect of control reagent alone on pUC18: TBHP 20 μM, NaN3 50 μM; for concentration at which the interaction with pDNA reaches saturation / pDNA cleavage mode: 100 ng pUC18, 24 h; for pDNA cleavage mode: 5–100 μM complex; for effect of NaN3 (singlet oxygen scavenger) on pDNA cleavage by the complex: 50 μM complex + 50 μM NaN3
# [4] = tested on: A2780 (ovarian carcinoma cell line); assay: MTS cell viability assay, 2D culture, A2780; type: cell-based, human; details: 48 h of exposure
# Procedure: as §1
# Cell culture and maintenance
# as §2, §3
# human primary dermal fibroblasts.
# as §4, §5, §6, §7, §8, §9, §10, §11, §12, §13, §14, §15, §16, §17, §24, §18, §19, §25, §20, §21, §22, §23, §26, §27
# (§28) By analysing the cell viability as a function of log10(concentration) using Prism 8 (GraphPad
# (§29) in cell viability) of each complex in the respective cell line at 48 h. The selective index (SI) for each
# (§30) complex was also determined by dividing the IC50 of human fibroblasts by the respective IC50 in each
# (§31) cancer cell line (allowing us to understand how much active a complex is in tumor versus normal cell).
# [5] = tested on: HCT116 (colorectal carcinoma cell line); assay: MTS cell viability assay, 2D culture, HCT116; type: cell-based, human; details: 48 h of exposure
# Procedure: as §1
# Cell culture and maintenance
# as §2, §3
# human primary dermal fibroblasts.
# as §4, §5, §6, §7, §8, §9, §10, §11, §12, §13, §14, §15, §16, §17, §24, §18, §19, §25, §20, §21, §22, §23, §26, §27, §28, §29, §30, §31
# [6] = tested on: HCT116DoxR cells; assay: Annexin V-FITC/PI apoptosis assay by flow cytometry; details: 48 h; for cells (%) early apoptosis / cells (%) late apoptosis / cells (%) necrosis / cells (%) viable / percentage of apoptosis (early + late): complexes at IC50, Dox 6 μM, cisplatin 5 μM; for fold increase in apoptotic cells, normalized to DMSO: complexes at IC50, cisplatin 5 μM
# Procedure: To evaluate the cell death mechanism involved in the cytotoxic effect of the selected complexes, a double-staining with Annexin V-FITC and PI was performed. […] The use of Annexin V conjugated with the fluorophore FITC allows the quantification of this interaction and subsequent identification of cells in apoptosis by flow cytometry. Furthermore, PI is a fluorophore that can intercalate with DNA and that can only enter the cell when the membrane is either compromised or ruptured, making it possible to identify cells undergoing late apoptosis and necrosis. Therefore, the double staining makes it possible to distinguish between viable cells (FITC^–; IP^–), those undergoing initial apoptosis (FITC^+; IP^–), those undergoing late apoptosis (FITC^+; IP^+), and those undergoing necrosis (FITC^–; IP^+).[55],[58]
# Evaluation of apoptosis induction in HCT116DoxR cell line by flow cytometry The induction of apoptosis in HCT116DoxR cell line was evaluated by flow cytometry, using the
# Annexin V-FITC Apoptosis Detection Kit (Thermo Fisher Scientific, Waltham, MA, USA). Cells
# were seeded in 6-well plates at a cell density of 1×10^5 cells/mL and incubated for 24 h. Afterwards,
# culture medium was replaced by medium with different Cu(II) complexes at their IC50 concentrations.
# After 48 h of incubation, cells were washed with PBS 1x, detached from each well with TrypLETM
# Express and washed again with PBS 1x. Cells were then resuspended in 1x annexin-binding buffer and
# incubated at rt for 15 min with Annexin V-FITC and 100 μg/mL PI.
# All samples were analysed by an Attune® Acoustic Focusing Flow Cytometer (Thermo Fischer
# Scientific, Waltham, MA, USA) and the results were processed with Attune® Cytometric software
# [7] = tested on: BAX and BCL-2; assay: BAX and BCL-2 protein expression by Western Blot; type: cell-based, human; details: HCT116DoxR, 48 h, IC50; normalized to β-actin
# [8] = tested on: HCT116DoxR spheroids; assay: MTS cell viability assay in 3D HCT116DoxR spheroids; type: cell-based, human; details: 6-day-old spheroids, 48 h of exposure
# [9] = tested on: EB–ct-DNA adduct; assay: Ethidium bromide displacement fluorescence assay; type: binding, calf; details: PBS; for apparent binding constant (Kapp): EB displacement, KEB = 1 × 10^7 M^–1; for Stern–Volmer quenching constant KSV: EB–ct-DNA, 0–40 μM complex
# [10] = tested on: chicken embryos; assay: Ex-ovo chick chorioallantoic membrane (CAM) assay; type: in vivo; details: IC50, vs DMSO control
# [11] = tested on: fibroblasts; assay: Cell migration (wound healing) assay; type: cell-based, human; details: 24 h; complexes at IC50, Dox 0.4 μM; vs DMSO
# Excerpt: A wound healing assay was therefore carried out on fibroblasts to study the influence of the Cu(II) complexes on cell migration in vitro. Skin fibroblasts were the model chosen for this assay as they are essential for regenerating damage in this tissue.[85] […]
# intrinsic binding constant Kb can be obtained from the ratio of the slope to the intercept of the linear fit of the plot [DNA]/[εa−εf] versus [DNA].
# For emission quenching experiments, equimolar solution of ct-DNA and ethidium bromide (EB, Sigma Aldrich) was prepared and allowed to incubate for 2 h in the dark. The tested complexes were titrated into the formed EB–ct-DNA adduct and incubated for additional 30 min. The final concentration of the EB–ct-DNA adduct was 50 μM and the concentration of the complexes varied from 0 to 40 μM. The fluorescence spectra were recorded on FLS-980 spectrofluorometer (Edinburgh Instruments, Livingston, United Kingdom) with excitation wavelength 515 nm and emission wavelength of 620 nm. The apparent binding constant (Kapp) was calculated using the Equations : […]
# where I0 and I are the fluorescence intensity in the absence and presence of the complexes; KSV is the Stern-Volmer quenching constant; [Q] is the concentration of the complexes; [Q1/2] is the concentration of the complex causing 50% reduction in the fluorescence intensity; K = 1×107 […]
# conditions mentioned before until the presence of a confluent monolayer was detected. A scratch was made on the surface of each well using a sterile 200 μL micropipette tip and the cells were […]
# Each plate was then incubated for 24 h in the same conditions mentioned before. […]
# The width of each scratch in each image was measured via ImageJ software. […]
# The ex-ovo CAM assay was performed to evaluate the copper(II) complexes’ effect on angiogenesis, as already described in literature11,12. […] Newly formed blood vessels were manually counted via ImageJ software. […]
# All results were expressed as mean ± SEM of at least two independent biological assays, each obtained by technical duplicates, unless otherwise specified. […]
# [12] = tested on: HCT116DoxR cells; assay: Cell cycle progression (PI, flow cytometry); details: for cell cycle progression after 24 h: complexes at IC50, cisplatin 5 μM
# Excerpt: Therefore, we have assessed the cytostatic potential of complexes 2, 3, 5, and 7, and their ability to interfere with the progression of the cell cycle using the fluorescent marker PI. Since this marker can intercalate with DNA, the measurement of the fluorescence emitted by flow cytometry makes it possible to assess the DNA content at each stage of the cell cycle (G0/G1, S, and G2/M).[67] To ensure that all the cells were in the same phase before their exposure to the complexes, a double block was carried out with thymidine, a DNA synthesis inhibitor.[67]
# HCT116DoxR cell line was seeded in 6-well plates in a density of 1×10^5 cells/mL and incubated for
# 24 h. Afterwards, the culture medium was replaced by medium with IC50 concentrations of different
# HCT116DoxR cell line was seeded in 6-well plates in a density of 1×10^5 cells/mL, incubated for 8 h in
# a humidified atmosphere at 37 °C and 5% (v/v) CO2, and later synchronized in early S-phase with a 2
# mM thymidine solution (Merck, Germany) for a 16 h period. Later, medium with thymidine was
# replaced by fresh media and, after 8 h a second block with thymidine was performed in the same
# concentrations of Cu(II) complexes. 0.1% (v/v) DMSO was used as the vehicle control while 5 μM
# After treatment, cells were incubated for 9, 12,
# [13] = Stability and solubility in biological medium (RPMI) by UV-vis; type: physicochemical; details: colorless RPMI, 50 μM, 37 °C
# Procedure: The stability of complexes 2, 3, 5, and 7 was assessed by UV–vis spectroscopy at 0, 24, and 48 h of incubation at 37 °C.
# In Figure S18, it is possible to observe the spectra of all Cu(II) complexes, where high-energy absorption bands correspond to π → π* and n → π* transitions with peaks in the 230–330 and 330–400 nm ranges, respectively, that are associated with the aromatic rings of terpyridines.[39],[49] Analyzing the spectra of complexes 2 and 3, it is possible to detect the existence of 3 bands (maximum ∼240, ∼ 290, and between 320 and 340 nm). […] Complex 7 only has 2 bands of maximum absorbance at 290 nm and between 320 and 340 nm.
# Nevertheless, all Cu(II) complex solutions were freshly prepared and added immediately to cells.
smiles,measurement,setting,value
c1ccc(-c2cc(-c3cccc4ccccc34)cc(-c3ccccn3)n2)nc1 [L1],IC50,[1],> 50 µM
same,IC50,[2],~0.2 µM
c1ccc(-c2cc(-c3ccnc4ccccc34)cc(-c3ccccn3)n2)nc1 [L2],IC50,[1],> 50 µM
same,IC50,[2],0.4 ± 0.02 µM
COc1ccc2c(OC)ccc(-c3cc(-c4ccccn4)nc(-c4ccccn4)c3)c2c1 [L4],IC50,[1],13.1 ± 3.18 µM
same,IC50,[2],0.4 ± 0.25 µM
c1ccc(-c2cc(-c3ccco3)cc(-c3ccccn3)n2)nc1 [L5],IC50,[1],> 50 µM
same,IC50,[2],0.6 ± 0.02 µM
c1ccc(-c2cc(-c3ccccn3)nc(-c3ccccn3)c2)nc1 [L7],IC50,[1],~50 µM
same,IC50,[2],0.5 ± 0.06 µM
CCn1c2ccccc2c2cc(-c3cc(-c4ccccn4)nc(-c4ccccn4)c3)ccc21 [L8],IC50,[1],~10 µM
same,IC50,[2],0.4 ± 0.04 µM
"[N-]=[N+]=[N-].[Na+] [NaN3, sodium azide, reference compound]",effect of control reagent alone on pUC18,[3],no effect
"CC(C)(C)OO [TBHP, Tert-Butyl hydroperoxide, reference compound]",effect of control reagent alone on pUC18,[3],unable to induce pUC18 cleavage
"F[P-](F)(F)(F)(F)F.F[P-](F)(F)(F)(F)F.[Cl][Cu].[Cl][Cu].c1ccc(-c2cc(-c3cccc4ccccc34)cc(-c3ccccn3)n2)nc1.c1ccc(-c2cc(-c3cccc4ccccc34)cc(-c3ccccn3)n2)nc1 [complex 1, [Cu2Cl2(4′-(1-Naphthyl)-terpy)2](PF6)2]",IC50,[4],0.8 ± 0.05 µM
same,IC50,[1],3.04 ± 0.02 µM
same,IC50,[5],0.16 ± 0.01 µM
same,IC50,[2],0.12 ± 0.01 µM
"F[P-](F)(F)(F)(F)F.F[P-](F)(F)(F)(F)F.[Cl][Cu].[Cl][Cu].c1ccc(-c2cc(-c3ccnc4ccccc34)cc(-c3ccccn3)n2)nc1.c1ccc(-c2cc(-c3ccnc4ccccc34)cc(-c3ccccn3)n2)nc1 [complex 2, [Cu2Cl2(4′-(4-Quinolyl)-terpy)2](PF6)2]",cells (%) early apoptosis,[6],47.3 ± 2.9%
same,cells (%) late apoptosis,[6],22.7 ± 4.6%
same,cells (%) necrosis,[6],0.3 ± 0.4%
same,cells (%) viable,[6],29.7 ± 6.3%
same,percentage of apoptosis (early + late),[6],65 to 70%
same,"fold increase in apoptotic cells, normalized to DMSO",[6],~6.4 fold
same,IC50,[4],0.54 ± 0.07 µM
same,expression of BAX compared to the DMSO control,[7],decreases
same,expression of BCL-2 compared to the DMSO control,[7],increases
same,IC50,[8],15.2 ± 0.8 µM
same,apparent binding constant (Kapp),[9],1.23 × 10^6 M^–1
same,Stern–Volmer quenching constant KSV,[9],2450 M⁻¹
same,IC50,[1],31.36 ± 0.02 µM
same,concentration at which the interaction with pDNA reaches saturation,[3],25 μM
same,pDNA cleavage mode,[3],single strands
same,effect of NaN3 (singlet oxygen scavenger) on pDNA cleavage by the complex,[3],no effect
same,formation of new blood vessels after 24 h,[10],no pro- or antiangiogenic effect
same,formation of new blood vessels after 48 h,[10],antiangiogenic effect
same,fibroblast migration (% of remission),[11],lower compared to the positive control Dox
same,IC50,[5],0.31 ± 0.01 µM
same,cell cycle progression after 12 h,"[12]; IC50, thymidine double block",delays cell cycle progression in the G2/M phase
same,cell cycle progression after 24 h,[12],delay the cycle in the G2/M phase
same,IC50,[2],0.25 ± 0.02 µM
same,maximum absorbances after 24 or 48 h compared to 0 h (reduction of solubility),[13],slight decrease
"COc1ccc2c(OC)ccc(-c3cc(-c4ccccn4)nc(-c4ccccn4)c3)c2c1.COc1ccc2c(OC)ccc(-c3cc(-c4ccccn4)nc(-c4ccccn4)c3)c2c1.F[P-](F)(F)(F)(F)F.F[P-](F)(F)(F)(F)F.[Cl][Cu].[Cl][Cu] [complex 4, [Cu2Cl2(4′-(4,7-Dimethoxy-1-naphthyl)-terpy)2](PF6)2]",IC50,[4],0.49 ± 0.1 µM
same,IC50,[1],2.64 ± 0.1 µM
same,IC50,[5],0.15 ± 0.04 µM
same,IC50,[2],0.16 ± 0.01 µM
"F[P-](F)(F)(F)(F)F.F[P-](F)(F)(F)(F)F.[Cl][Cu].[Cl][Cu].c1ccc(-c2cc(-c3ccccn3)nc(-c3ccccn3)c2)nc1.c1ccc(-c2cc(-c3ccccn3)nc(-c3ccccn3)c2)nc1 [complex 7, [Cu2Cl2(4′-(2-Pyridynyl)-terpy)2](PF6)2]",cells (%) early apoptosis,[6],37.4 ± 7.4%
same,cells (%) late apoptosis,[6],9.0 ± 2.6%
same,cells (%) necrosis,[6],1.1 ± 0.5%
same,cells (%) viable,[6],52.5 ± 6.7%
same,percentage of apoptosis (early + late),[6],~46%
same,"fold increase in apoptotic cells, normalized to DMSO",[6],5 fold
same,IC50,[4],1.13 ± 0.2 µM
same,expression of BAX compared to the DMSO control,[7],decreases
same,expression of BCL-2 compared to the DMSO control,[7],increases
same,IC50,[8],30.48 ± 0.19 µM
same,apparent binding constant (Kapp),[9],1.16 × 10^6 M^–1
same,Stern–Volmer quenching constant KSV,[9],2320 M⁻¹
same,IC50,[1],16.08 ± 0.05 µM
same,concentration at which the interaction with pDNA reaches saturation,[3],100 μM
same,pDNA cleavage mode,[3],single and double strands
same,effect of NaN3 (singlet oxygen scavenger) on pDNA cleavage by the complex,[3],almost completely reversed
same,formation of new blood vessels after 24 h,[10],no pro- or antiangiogenic effect
same,formation of new blood vessels after 48 h,[10],antiangiogenic effect
same,IC50,[5],0.23 ± 0.01 µM
same,cell cycle progression after 12 h,"[12]; IC50, thymidine double block",delays cell cycle progression in the G2/M phase
same,cell cycle progression after 18 h,"[12]; 18 h, IC50, thymidine double block",delay in cycle progression in the G0/G1 phase
same,cell cycle progression after 24 h,[12],delay the cycle in the G2/M phase
same,IC50,[2],0.19 ± 0.01 µM
"CCn1c2ccccc2c2cc(-c3cc(-c4ccccn4)nc(-c4ccccn4)c3)ccc21.CCn1c2ccccc2c2cc(-c3cc(-c4ccccn4)nc(-c4ccccn4)c3)ccc21.F[P-](F)(F)(F)(F)F.F[P-](F)(F)(F)(F)F.[Cl][Cu].[Cl][Cu] [complex 8, [Cu2Cl2(4′-(N-Ethyl-9H-carbazol-3-yl)-terpy)2](PF6)2]",IC50,[4],0.37 ± 0.06 µM
same,IC50,[1],7.36 ± 0.04 µM
same,IC50,[5],0.1 ± 0.03 µM
same,IC50,[2],0.19 ± 0.06 µM
